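A five-concentration, 48-hour dose response in 96-well plates underlies each endpoint, interpolated linearly between surrounding concentrations. GI50: concentration for 50% inhibition of growth.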 Active and inactive are the calls of the source. Cut-off read from the data, not from the text of the source: active = GI50 up to about 1.1 µM and inactive = higher.
How the values were obtained:
Test in all cases: NCI anticancer screen, dose series, 48 h
786-0 = system: 786-0
A498 = system: A498
A549 = system: A549
CCRF-CEM = system: CCRF-CEM
DLD-1 = system: DLD-1
DMS-114 = system: DMS-114
DMS-273 = system: DMS-273
EKVX = system: EKVX
HCT-116 = system: HCT-116
HCT-15 = system: HCT-15
HL-60 = system: HL-60
HOP-18 = system: HOP-18
HOP-62 = system: HOP-62
HOP-92 = system: HOP-92
HT-29 = system: HT-29
IGROV-1 = system: IGROV-1
K562 = system: K562
KM-20L2 = system: KM-20L2
KM12 = system: KM12
LOX IMVI = system: LOX IMVI
LXFL 529 = system: LXFL 529
M14 = system: M14
M19-MEL = system: M19-MEL
MOLT-4 = system: MOLT-4
Malme-3M = system: Malme-3M
NCI-H23 = system: NCI-H23
NCI-H460 = system: NCI-H460
NCI-H522 = system: NCI-H522
OVCAR-3 = system: OVCAR-3
OVCAR-5 = system: OVCAR-5
OVCAR-8 = system: OVCAR-8
RPMI-8226 = system: RPMI-8226
SF-268 = system: SF-268
SF-295 = system: SF-295
SF-539 = system: SF-539
SK-MEL-28 = system: SK-MEL-28
SK-MEL-2 = system: SK-MEL-2
SK-MEL-5 = system: SK-MEL-5
SK-OV-3 = system: SK-OV-3
SNB-19 = system: SNB-19
SNB-78 = system: SNB-78
SR = system: SR
SW-620 = system: SW-620
TK-10 = system: TK-10
U-251 = system: U-251
UACC-257 = system: UACC-257
UACC-62 = system: UACC-62
UO-31 = system: UO-31
XF498 = system: XF498
CAKI-1 = system: CAKI-1

Question: `CC(C)(Oc1ccc(C(=O)c2ccc(Cl)cc2)cc1Cl)C(=O)N1CCN(c2ccccc2)CC1` was tested. Which GI50 (786-0) did it give?
Answer: The GI50 was > 100 µM (inactive).

Question: And the GI50 (A498)?
Answer: The GI50 was > 100 µM (inactive).

Question: What about the GI50 (A549) of the same molecule?
Answer: Its GI50 is 58.5 µM (inactive).

Question: And the GI50 (CCRF-CEM)?
Answer: The GI50 was > 100 µM (inactive).

Question: What about the GI50 (DLD-1) of the same molecule?
Answer: Its GI50 is > 100 µM (inactive).

Question: What about the GI50 (DMS-114) of the same molecule?
Answer: The GI50 was 45.7 µM (inactive).

Question: And the GI50 (DMS-273)?
Answer: Its GI50 is 55.7 µM (inactive).

Question: And the GI50 (EKVX)?
Answer: The GI50 was > 100 µM (inactive).

Question: And the GI50 (HCT-116)?
Answer: The GI50 was 82.2 µM (inactive).

Question: And the GI50 (HCT-15)?
Answer: Its GI50 is > 100 µM.

Question: And the GI50 (HL-60)?
Answer: Its GI50 is 60.8 µM (inactive).

Question: What about the GI50 (HOP-18) of the same molecule?
Answer: The GI50 was > 100 µM (inactive).

Question: What about the GI50 (HOP-62) of the same molecule?
Answer: The GI50 was > 100 µM (inactive).

Question: And the GI50 (HOP-92)?
Answer: Its GI50 is > 100 µM (inactive).

Question: And the GI50 (HT-29)?
Answer: Its GI50 is > 100 µM (inactive).

Question: And the GI50 (IGROV-1)?
Answer: Its GI50 is > 100 µM (inactive).

Question: And the GI50 (K562)?
Answer: The GI50 was 34.4 µM (inactive).

Question: What about the GI50 (KM-20L2) of the same molecule?
Answer: Its GI50 is > 100 µM (inactive).

Question: What about the GI50 (KM12) of the same molecule?
Answer: Its GI50 is > 100 µM (inactive).

Question: And the GI50 (LOX IMVI)?
Answer: The GI50 was > 100 µM (inactive).

Question: What about the GI50 (LXFL 529) of the same molecule?
Answer: Its GI50 is > 100 µM (inactive).

Question: What about the GI50 (M14) of the same molecule?
Answer: Its GI50 is > 100 µM (inactive).

Question: And the GI50 (M19-MEL)?
Answer: Its GI50 is > 100 µM (inactive).

Question: And the GI50 (MOLT-4)?
Answer: Its GI50 is > 100 µM (inactive).

Question: And the GI50 (Malme-3M)?
Answer: The GI50 was > 100 µM (inactive).

Question: What about the GI50 (NCI-H23) of the same molecule?
Answer: The GI50 was 37.2 µM (inactive).

Question: What about the GI50 (NCI-H460) of the same molecule?
Answer: Its GI50 is > 100 µM (inactive).

Question: What about the GI50 (NCI-H522) of the same molecule?
Answer: Its GI50 is 59 µM (inactive).

Question: And the GI50 (OVCAR-3)?
Answer: Its GI50 is > 100 µM (inactive).

Question: And the GI50 (OVCAR-5)?
Answer: Its GI50 is > 100 µM (inactive).

Question: And the GI50 (OVCAR-8)?
Answer: Its GI50 is > 100 µM (inactive).

Question: What about the GI50 (RPMI-8226) of the same molecule?
Answer: Its GI50 is > 100 µM (inactive).

Question: And the GI50 (SF-268)?
Answer: Its GI50 is > 100 µM (inactive).

Question: And the GI50 (SF-295)?
Answer: Its GI50 is > 100 µM (inactive).

Question: What about the GI50 (SF-539) of the same molecule?
Answer: Its GI50 is > 100 µM (inactive).

Question: What about the GI50 (SK-MEL-28) of the same molecule?
Answer: The GI50 was > 100 µM (inactive).

Question: And the GI50 (SK-MEL-2)?
Answer: Its GI50 is > 100 µM (inactive).

Question: And the GI50 (SK-MEL-5)?
Answer: The GI50 was 72.8 µM (inactive).

Question: And the GI50 (SK-OV-3)?
Answer: Its GI50 is > 100 µM (inactive).

Question: And the GI50 (SNB-19)?
Answer: Its GI50 is > 100 µM (inactive).

Question: And the GI50 (SNB-78)?
Answer: The GI50 was > 100 µM (inactive).

Question: What about the GI50 (SR) of the same molecule?
Answer: The GI50 was 66.1 µM (inactive).

Question: And the GI50 (SW-620)?
Answer: The GI50 was > 100 µM (inactive).

Question: What about the GI50 (TK-10) of the same molecule?
Answer: The GI50 was > 100 µM (inactive).

Question: And the GI50 (U-251)?
Answer: The GI50 was > 100 µM (inactive).

Question: And the GI50 (UACC-257)?
Answer: The GI50 was 43.7 µM (inactive).

Question: What about the GI50 (UACC-62) of the same molecule?
Answer: The GI50 was > 100 µM (inactive).

Question: What about the GI50 (UO-31) of the same molecule?
Answer: Its GI50 is 46.9 µM (inactive).

Question: What about the GI50 (XF498) of the same molecule?
Answer: The GI50 was 52.1 µM (inactive).

Question: For `O=c1cc(-c2ccccc2)oc2cc(OCC(O)COc3ccc4c(=O)cc(-c5ccccc5)oc4c3)ccc12`, which GI50 (786-0) is on record?
Answer: Its GI50 is 17.4 µM (inactive).

Question: And the GI50 (A498)?
Answer: The GI50 was > 100 µM (inactive).

Question: What about the GI50 (A549) of the same molecule?
Answer: The GI50 was > 100 µM (inactive).

Question: What about the GI50 (CAKI-1) of the same molecule?
Answer: The GI50 was > 100 µM (inactive).

Question: What about the GI50 (CCRF-CEM) of the same molecule?
Answer: The GI50 was 33 µM (inactive).

Question: And the GI50 (DLD-1)?
Answer: Its GI50 is > 100 µM (inactive).

Question: And the GI50 (DMS-114)?
Answer: Its GI50 is > 100 µM (inactive).

Question: What about the GI50 (DMS-273) of the same molecule?
Answer: The GI50 was 41.9 µM (inactive).

Question: What about the GI50 (EKVX) of the same molecule?
Answer: The GI50 was > 100 µM (inactive).

Question: And the GI50 (HCT-116)?
Answer: The GI50 was 42.5 µM (inactive).

Question: And the GI50 (HCT-15)?
Answer: The GI50 was 89.1 µM.

Question: What about the GI50 (HL-60) of the same molecule?
Answer: Its GI50 is 23 µM (inactive).

Question: And the GI50 (HOP-18)?
Answer: The GI50 was > 100 µM (inactive).

Question: What about the GI50 (HOP-62) of the same molecule?
Answer: Its GI50 is 8.43 µM (inactive).

Question: And the GI50 (HOP-92)?
Answer: The GI50 was 26.5 µM (inactive).

Question: What about the GI50 (HT-29) of the same molecule?
Answer: The GI50 was > 100 µM (inactive).

Question: And the GI50 (IGROV-1)?
Answer: Its GI50 is > 100 µM (inactive).

Question: And the GI50 (K562)?
Answer: The GI50 was 42.8 µM (inactive).

Question: And the GI50 (KM-20L2)?
Answer: Its GI50 is > 100 µM (inactive).

Question: And the GI50 (KM12)?
Answer: Its GI50 is > 100 µM (inactive).

Question: And the GI50 (LOX IMVI)?
Answer: The GI50 was 25.3 µM (inactive).

Question: And the GI50 (LXFL 529)?
Answer: The GI50 was 40 µM (inactive).

Question: And the GI50 (M14)?
Answer: The GI50 was > 100 µM (inactive).

Question: And the GI50 (M19-MEL)?
Answer: The GI50 was 56.4 µM (inactive).

Question: And the GI50 (MOLT-4)?
Answer: The GI50 was 40.2 µM (inactive).

Question: And the GI50 (Malme-3M)?
Answer: The GI50 was > 100 µM (inactive).

Question: What about the GI50 (NCI-H23) of the same molecule?
Answer: The GI50 was 43.9 µM (inactive).

Question: What about the GI50 (NCI-H460) of the same molecule?
Answer: The GI50 was 40.3 µM (inactive).

Question: What about the GI50 (NCI-H522) of the same molecule?
Answer: Its GI50 is 28.4 µM (inactive).

Question: And the GI50 (OVCAR-3)?
Answer: The GI50 was 32.5 µM (inactive).

Question: And the GI50 (OVCAR-5)?
Answer: Its GI50 is > 100 µM (inactive).

Question: What about the GI50 (OVCAR-8) of the same molecule?
Answer: Its GI50 is 19.1 µM (inactive).

Question: And the GI50 (RPMI-8226)?
Answer: The GI50 was > 100 µM (inactive).

Question: What about the GI50 (SF-268) of the same molecule?
Answer: The GI50 was 14.6 µM (inactive).

Question: What about the GI50 (SF-295) of the same molecule?
Answer: The GI50 was 38.4 µM (inactive).

Question: And the GI50 (SF-539)?
Answer: Its GI50 is 22.4 µM (inactive).

Question: And the GI50 (SK-MEL-28)?
Answer: The GI50 was > 100 µM (inactive).

Question: What about the GI50 (SK-MEL-2) of the same molecule?
Answer: Its GI50 is 21.5 µM (inactive).

Question: And the GI50 (SK-MEL-5)?
Answer: The GI50 was > 100 µM (inactive).

Question: What about the GI50 (SK-OV-3) of the same molecule?
Answer: Its GI50 is 16.8 µM (inactive).

Question: And the GI50 (SNB-19)?
Answer: Its GI50 is 20.2 µM (inactive).

Question: And the GI50 (SNB-78)?
Answer: The GI50 was 13.6 µM (inactive).

Question: And the GI50 (SW-620)?
Answer: Its GI50 is 61.2 µM (inactive).

Question: What about the GI50 (TK-10) of the same molecule?
Answer: The GI50 was 42.4 µM (inactive).

Question: And the GI50 (U-251)?
Answer: Its GI50 is 20.8 µM (inactive).

Question: What about the GI50 (UACC-257) of the same molecule?
Answer: The GI50 was > 100 µM (inactive).

Question: What about the GI50 (UACC-62) of the same molecule?
Answer: The GI50 was > 100 µM (inactive).

Question: What about the GI50 (UO-31) of the same molecule?
Answer: Its GI50 is > 100 µM (inactive).

Question: And the GI50 (XF498)?
Answer: The GI50 was 23.4 µM (inactive).
